# Like-named read-outs stand apart in the source and are kept apart here.
# How the values were obtained:
# Leukemia L1210 [1] = test: Activity against Leukemia L1210, intraperitoneal, increase in life span of mice; type: in vivo, female mice (BDF1 family); details: for ED (maximum ILS) / ED30: Mus musculus, L1210, ip, ip once a day for 5 successive days; for ED (maximum ILS): daily dosage giving maximum increase of life span, read-out: O.D. (optimum dosage); for ED30: daily dosage increasing average survival days by 30%, read-out: ILS30; for Survivors after 60 days / Max. ILS % / Therapeutic ratio TR: ip; for Survivors after 60 days: 6-membered group; for Max. ILS %: 60-day observation, versus control; for Therapeutic ratio TR: O.D./ILS30
# In short: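 Female BDF1 mice (20 to 23 g; 6 per group) were implanted intraperitoneally with 1×10^5 L1210 cells, then dosed ip or orally once daily for 5 days starting 24 h later. Survival was followed over 60 days, and ILS% was derived from mean survival days versus untreated controls.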
# [2] = Acute toxicity (LD50, Behrens-Karber method); type: in vivo, ICR mice; details: mouse, in vivo, ip, mortality during 30 days
# Procedure: Test compounds, dissolved or suspended in 0.5% aqueous CMC, were each intraperitoneally administered to ICR mice in a dose of 0.1 ml per 10 g body weight. LD50 (mg/kg) value of each test compound was calculated from the mortality of mice during 30 days by the Behrens-Karber method.
# Leukemia L1210 [3] = test: Activity against Leukemia L1210, oral, increase in life span of mice; type: in vivo, female mice (BDF1 family); details: for ED (maximum ILS) / ED30: Mus musculus, L1210, oral once a day for 5 successive days; for ED (maximum ILS): daily dosage giving maximum increase of life span, read-out: O.D. (optimum dosage); for ED30: daily dosage increasing average survival days by 30%, read-out: ILS30; for Survivors after 60 days / Max. ILS % / Therapeutic ratio TR: oral; for Survivors after 60 days: 6-membered group; for Max. ILS %: 60-day observation, versus control; for Therapeutic ratio TR: O.D./ILS30
# Procedure: Tests were conducted in accordance with the method for measuring antitumor activity of National Cancer Center Tokyo (A, Hoshi et al, Farumashia 9 464 (1973)). Test compounds were each intraperitoneally (referred to as ip) or orally (referred to as op) administered once a day for 5 successive days to a 6-membered group of femal mice (BDF1 family, each weighing 20 to 23 g) 24 hours after 1×10^5 cells of Leukemia L1210 have been implantated into the abdominal cavities of the mice, and the effect was evaluated by comparing the survival days of treated groups with those of an untreated group of mice (control group) in 60-day observation. An increase percentage of life span (ILS%) was calculated from said average survival days compared with those of the control group. Further, therapeutic ratio (O.D./ILD30, referred to as T.R.) of each tested compound was calculated from the daily dosage of the compound necessary to increase said average survival days by 30% as compared with the control group (this dosage is referred to as ILS 30) and the daily dosage giving a maximum increase of life span to mice implantated with L1210 cells, namely an optimum dosage (referred to as O.D.). The results of five successive days intraperitoneal administrations of test compounds were shown in Tables I to III, and those of five successive oral administrations in Table IV.
# Ehrlich acites carcinoma = test: Growth-inhibiting effect against Ehrlich acites carcinoma; type: in vivo, male mice; details: Mus musculus, Ehrlich, 120 h, 5 days; for response vs control in vivo at 25 mg/kg: 25 mg/kg/day ip; for response vs control in vivo at 100 mg/kg: 100 mg/kg/day ip; for response vs control in vivo at 50 mg/kg: 50 mg/kg/day ip; for response vs control in vivo at 200 mg/kg: 200 mg/kg/day ip
# Procedure: Ehrlich acites carcinoma (1×10^7 cells) was implantated into the abdominal cavities of a 6-membered group of male mice. Test compounds (solutions or suspensions in 1% Nikohl HCO-60) were each intraperioneally administered once a day 5 successive days to the mice 24 hrs. after the implantation. Total packed cell volumes [TPCV, namely, total packed volumes of Acites carcinoma] were determined 7 days after the implantation to calculate growth ratio of tumor [T/C%; T: packed volume of Acites carcinoma in treated groups, C: packed volume of Acites carcinoma in an untreated group]. Acitivity is represented by - when T/C% is 100-66, by + when T/C% 65-41, by ++ when T/C% 40-11, and by +++ when T/C% 10-0.
SMILES,ED (maximum ILS) (Leukemia L1210 [1]),ED30 (Leukemia L1210 [1]),Survivors after 60 days (Leukemia L1210 [1]),Max. ILS % (Leukemia L1210 [1]),Therapeutic ratio TR (Leukemia L1210 [1]),LD50 at 720 h [2],ED (maximum ILS) (Leukemia L1210 [3]),ED30 (Leukemia L1210 [3]),Survivors after 60 days (Leukemia L1210 [3]),Max. ILS % (Leukemia L1210 [3]),Therapeutic ratio TR (Leukemia L1210 [3]),response vs control in vivo at 25 mg/kg (Ehrlich acites carcinoma; read-out: Activity),response vs control in vivo at 25 mg/kg (Ehrlich acites carcinoma; read-out: T/C %),response vs control in vivo at 100 mg/kg (Ehrlich acites carcinoma; read-out: Activity),response vs control in vivo at 100 mg/kg (Ehrlich acites carcinoma; read-out: T/C %),response vs control in vivo at 50 mg/kg (Ehrlich acites carcinoma; read-out: Activity),response vs control in vivo at 50 mg/kg (Ehrlich acites carcinoma; read-out: T/C %),response vs control in vivo at 200 mg/kg (Ehrlich acites carcinoma; read-out: Activity),response vs control in vivo at 200 mg/kg (Ehrlich acites carcinoma; read-out: T/C %)
"CCOCCN(C(=O)N(CCCl)N=O)[C@H]1[C@@H](OCC(C)C)O[C@H](CO)[C@H](O)[C@@H]1O [Compound 123, 3-(2-ethoxyethyl)-3-(isobutyl α-D-galactopyranose-2-yl)-1-(2-chloroethyl)-1-nitrosourea]",200 mg/kg,4.98 mg/kg,3/6,> 365%,40.2,730 mg/kg,240 mg/kg,13.2 mg/kg,3/6,> 360%,18.2,,,,,,,,
"CC(C)CO[C@H]1O[C@H](CN(CC(C)(C)C)C(=O)N(CCCl)N=O)[C@@H](O)[C@H](O)[C@H]1O [Compound 183, 3-neopentyl-3-(isobutyl α-D-glucopyranose-6-yl)-1-(2-chloroethyl)-1-nitrosourea]",170 mg/kg,3.01 mg/kg,6/6,> 700%,56.4,520 mg/kg,200 mg/kg,13.2 mg/kg,4/6,> 460%,15.2,,,,,,,,
"CCOCCO[C@H]1O[C@H](CO)[C@@H](O)[C@H](O)[C@H]1N(CCC(C)(C)C)C(=O)N(CCCl)N=O [Compound 192, 3-(3,3-dimethyl-n-butyl)-3-(2-ethoxyethyl α-D-glucopyranose-2-yl)-1-(2-chloroethyl)-1-nitrosourea]",160 mg/kg,2.74 mg/kg,6/6,> 700%,58.4,515 mg/kg,200 mg/kg,9.85 mg/kg,5/6,> 625%,20.3,,,,,,,,
"CCOCCN(C(=O)N(CCCl)N=O)C1C(OC2CCCCC2)OC(CO)C(O)C1O [Compound 64, 3-(2-ethoxyethyl)-3-(cyclohexyl α-D-glucopyranose-2-yl)-1-(2-chloroethyl)-1-nitrosourea]",200 mg/kg,4.76 mg/kg,4/6,> 450%,42.0,650 mg/kg,240 mg/kg,13.2 mg/kg,4/6,> 460%,18.2,,,,,,,,
"COCCCO[C@H]1O[C@H](CN(C(=O)N(CCCl)N=O)C2CCCCC2)[C@@H](O)[C@H](O)[C@H]1O [Compound 174, 3-cyclohexyl-3-(3-methoxy-n-propyl α-D-glucopyranose-6-yl)-1-(2-chloroethyl)-1-nitrosourea]",180 mg/kg,2.78 mg/kg,6/6,> 700%,64.8,610 mg/kg,230 mg/kg,9.66 mg/kg,5/6,> 620%,23.8,,,,,,,,
"CCCCOC1OC(CO)C(O)C(O)C1N(CC1CCCO1)C(=O)N(CCCl)N=O [Compound 63, 3-tetrahydrofurfuryl-3-(n-butyl α-D-glucopyranose-2-yl)-1-(2-chloroethyl)-1-nitrosourea]",190 mg/kg,5.31 mg/kg,3/6,> 350%,35.8,595 mg/kg,,,,,,0 to 10%,0%,0 to 10%,0%,,,,
"COC(C)CN(C[C@H]1O[C@H](OC2CCCCC2)[C@H](O)[C@@H](O)[C@@H]1O)C(=O)N(CCCl)N=O (stereo partly drawn) [Compound 41, 3-(2-methoxy-n-propyl)-3-(cyclohexyl α-D-glucopyranose-6-yl)-1-(2-chloroethyl)-1-nitrosourea]",180 mg/kg,2.72 mg/kg,6/6,> 700%,66.2,580 mg/kg,,,,,,0 to 10%,0%,0 to 10%,0%,,,,
"CC(C)(C)CN(C[C@H]1O[C@H](OCC2CCCO2)[C@H](O)[C@@H](O)[C@@H]1O)C(=O)N(CCCl)N=O (stereo partly drawn) [Compound 188, 3-neopentyl-3-(tetrahydrofurfuryl α-D-glucopyranose-6-yl)-1-(2-chloroethyl)-1-nitrosourea]",170 mg/kg,2.72 mg/kg,6/6,> 700%,62.5,550 mg/kg,,,,,,0 to 10%,0%,0 to 10%,0%,,,,
"CCOCCN(C[C@H]1O[C@H](OCC(C)C)[C@H](O)[C@@H](O)[C@H]1O)C(=O)N(CCCl)N=O [Compound 109, 3-(2-ethoxyethyl)-3-(isobutyl α-D-galactopyranose-6-yl)-1-(2-chloroethyl)-1-nitrosourea]",200 mg/kg,3.74 mg/kg,4/6,> 430%,53.5,655 mg/kg,,,,,,0 to 10%,0%,0 to 10%,0%,,,,
"O=NN(CCCl)C(=O)N(CC1CCCO1)C[C@H]1O[C@H](OC2CCCCC2)[C@H](O)[C@@H](O)[C@@H]1O (stereo partly drawn) [Compound 50, 3-tetrahydrofurfuryl-3-(cyclohexyl α-D-glucopyranose-6-yl)-1-(2-chloroethyl)-1-nitrosourea]",150 mg/kg,2.31 mg/kg,6/6,> 700%,64.9,450 mg/kg,,,,,,0 to 10%,0%,0 to 10%,0%,,,,
"CCCCO[C@H]1O[C@H](CN(C)C(=O)N(CCCl)N=O)[C@@H](O)[C@H](O)[C@H]1O [Compound 3, 3-methyl-3-(n-butylα-D-glucopyranose-6-yl)-1-(2-chloroethyl)-1-nitrosourea]",90 mg/kg,2.7 mg/kg,6/6,> 700%,33.3,260 mg/kg,,,,,,,,,,11 to 40%,22.4%,0 to 10%,0%
"COc1cccc(CO[C@H]2O[C@H](CN(CC(C)C)C(=O)N(CCCl)N=O)[C@@H](O)[C@H](O)[C@H]2O)c1OC [Compound 52, 3-isobutyl-3-(2,3-dimethoxybenzyl α-D-glucopyranose-6-yl)-1-(2-chloroethyl)-1-nitrosourea]",120 mg/kg,3.62 mg/kg,4/6,> 420%,33.1,360 mg/kg,,,,,,0 to 10%,0%,0 to 10%,0%,,,,
